Measured values reported in ChEMBL document CHEMBL3045350, “Inheritance of resistance to a new non-steroidal ecdysone agonist, fufenozide, in the diamondback moth, Plutella xylostella (Lepidoptera: Plutellidae)” (2010).
Converted amounts (≈) assume the structure as drawn.

What was measured:
Format in all cases: functional
Plutella xylostella [1] = assay: Insecticidal activity against F1 generation of third-instar larvae of Plutella xylostella (diamondback moth) in cabbage leaf assessed as mortality after 96 hr by leaf dip method; details: foliar
Plutella xylostella [2] = assay: Resistant ratio, ratio of LC50 for backcrossed third-instar larvae of Plutella xylostella (diamondback moth) to LC50 for fufenozide-susceptible third-instar larvae of Plutella xylostella
Plutella xylostella [3] = assay: Resistant ratio, ratio of LC50 for F1 generation of third-instar larvae of Plutella xylostella (diamondback moth) to LC50 for fufenozide-susceptible third-instar larvae of Plutella xylostella
Plutella xylostella [4] = assay: Insecticidal activity against backcrossed third-instar larvae of Plutella xylostella (diamondback moth) in cabbage leaf assessed as mortality after 96 hr by leaf dip method; details: foliar
Plutella xylostella [5] = assay: Insecticidal activity against F2 generation of third-instar larvae of Plutella xylostella (diamondback moth) in cabbage leaf assessed as mortality after 96 hr by leaf dip method; details: foliar
Plutella xylostella [6] = assay: Insecticidal activity against F1 pooled generation of third-instar larvae of Plutella xylostella (diamondback moth) in cabbage leaf assessed as mortality after 96 hr by leaf dip method; details: foliar
Plutella xylostella [7] = assay: Insecticidal activity against fufenozide-resistant 39th generation of third-instar larvae of Plutella xylostella (diamondback moth) in cabbage leaf assessed as mortality after 96 hr by leaf dip method; details: foliar
Plutella xylostella [8] = assay: Resistant ratio, ratio of LC50 for F'1 generation of third-instar larvae of Plutella xylostella (diamondback moth) to LC50 for fufenozide-susceptible third-instar larvae of Plutella xylostella
Plutella xylostella [9] = assay: Resistant ratio, ratio of LC50 for F1 pooled generation of third-instar larvae of Plutella xylostella (diamondback moth) to LC50 for fufenozide-susceptible third-instar larvae of Plutella xylostella
Plutella xylostella [10] = assay: Resistant ratio, ratio of LC50 for F2 generation of third-instar larvae of Plutella xylostella (diamondback moth) to LC50 for fufenozide-susceptible third-instar larvae of Plutella xylostella
Plutella xylostella [11] = assay: Insecticidal activity against fufenozide-susceptible third-instar larvae of Plutella xylostella (diamondback moth) in cabbage leaf assessed as mortality after 96 hr by leaf dip method; details: foliar
Plutella xylostella [12] = assay: Insecticidal activity against F'1 generation of third-instar larvae of Plutella xylostella (diamondback moth) in cabbage leaf assessed as mortality after 96 hr by leaf dip method; details: foliar

Cc1cc(C)cc(C(=O)N(NC(=O)c2ccc3c(c2C)OC(C)C3)C(C)(C)C)c1 (configuration not stated) [FUXIAN]
LC50 (Plutella xylostella [1]): 5.22 µg/mL (≈ 13.2 µM)
RatioLC50 (Plutella xylostella [2]): 2.33
RatioLC50 (Plutella xylostella [3]): 1.76
LC50 (Plutella xylostella [4]): 6.93 µg/mL (≈ 17.6 µM)
LC50 (Plutella xylostella [5]): 5 µg/mL (≈ 12.7 µM)
LC50 (Plutella xylostella [6]): 5.82 µg/mL (≈ 14.8 µM)
LC50 (Plutella xylostella [7]): 1480 µM
RatioLC50 (Plutella xylostella [8]): 2.09
RatioLC50 (Plutella xylostella [9]): 2.61
RatioLC50 (Plutella xylostella [10]): 2.24
LC50 (Plutella xylostella [11]): 2.23 µg/mL (≈ 5.66 µM)
LC50 (Plutella xylostella [12]): 6.22 µg/mL (≈ 15.8 µM)
